# Tests used:
# Rattus norvegicus [1] = assay: Number of rats protected at a dose of 30 mg/Kg when given oral at 1 hr upon maximal electroshock seizure; Total number of rats = 4; type: functional
# Rattus norvegicus [2] = assay: Number of rats protected at a dose of 30 mg/Kg when given oral at 2 hr upon maximal electroshock seizure; Total number of rats = 4; type: functional
# Mus musculus [3] = assay: Minimum dose required for anticonvulsant activity when given i.p., at 0.5 hr in mice upon neurotoxicity seizure using rotarod test; type: functional
# Mus musculus [4] = assay: Minimum dose required for anticonvulsant activity when given i.p., at 0.5 hr in mice upon maximal electroshock seizure; type: functional
# Rattus norvegicus [5] = assay: Number of rats protected at a dose of 30 mg/Kg when given oral at 0.25 hr upon maximal electroshock seizure; Total number of rats = 4; type: functional
# Mus musculus [6] = assay: Minimum dose required for anticonvulsant activity when given i.p., at 0.5 hr in mice upon subcutaneous pentylenetetrazole seizure; type: functional
# Rattus norvegicus [7] = assay: Number of rats protected at a dose of 30 mg/Kg when given oral at 4 hr upon maximal electroshock seizure; Total number of rats = 4; type: functional
# Mus musculus [8] = assay: Minimum dose required for anticonvulsant activity when given i.p., at 4 hr in mice upon maximal electroshock seizure; type: functional
# Rattus norvegicus [9] = assay: Number of rats protected at a dose of 30 mg/Kg when given oral at 0.5 hr upon maximal electroshock seizure; Total number of rats = 4; type: functional
# Mus musculus [10] = assay: Post treatment activity score for CNS study using a actophotometer at a dose of 100 mg/Kg after 1 hr when given i.p., in mice (No. of animals 6); Control (24h before) 224
# Mus musculus [11] = assay: Minimum dose required for anticonvulsant activity when given i.p., at 0.5 hr in mice upon subcutaneous strychnine seizure; type: functional
# Mus musculus [12] = assay: Minimum dose required for anticonvulsant activity when given i.p., at 2 hr in mice upon subcutaneous strychnine seizure; type: functional
# Mus musculus [13] = assay: Post treatment activity score for CNS study using a actophotometer at a dose of 100 mg/Kg after 0.5 hr when given i.p., in mice (No. of animals 6); Control (24h before) 224
# Mus musculus [14] = assay: Minimum dose required for anticonvulsant activity when given i.p., in mice upon neurotoxicity seizure using rotarod test
# Rattus norvegicus [15] = species on record: Rattus norvegicus; assay: Ex vitro percentage inhibition activity against GABA-T enzyme at a concentration of 1.25 uM after 4.5 h; type: functional
# [16] = target: 4-aminobutyrate aminotransferase, mitochondrial (Rattus norvegicus) (UniProt P50554); assay: In vitro percentage inhibition activity against GABA-T enzyme at a concentration of 1.25 uM after 4.5 h
# Rattus norvegicus [17] = species on record: Rattus norvegicus; assay: Ex vitro percentage inhibition activity against GABA-T enzyme at a concentration of 1.25 uM after 3 h; type: functional
# [18] = target: 4-aminobutyrate aminotransferase, mitochondrial (Rattus norvegicus) (UniProt P50554); assay: In vitro percentage inhibition activity against GABA-T enzyme at a concentration of 1.25 uM after 3 h
# Rattus norvegicus [19] = species on record: Rattus norvegicus; assay: Ex vitro percentage inhibition activity against GABA-T enzyme at a concentration of 1.25 uM after 6 h; type: functional
# [20] = target: 4-aminobutyrate aminotransferase, mitochondrial (Rattus norvegicus) (UniProt P50554); assay: In vitro percentage inhibition activity against GABA-T enzyme at a concentration of 1.25 uM after 6 h
# Mus musculus [21] = assay: Mean sleeping time evaluated for CNS study using the pentobarbital-induced narcosis model at a dose of 100 mg/Kg when given i.p., in mice (No. of animals 6)
# Rattus norvegicus [22] = assay: Effect on GABA level in rat whole brain concentration after 2 hr post-treatment at a dose of 100 mg/Kg when given i.p.; Control 48.4; type: functional
# Rattus norvegicus [23] = assay: Effect on GABA level in rat whole brain concentration after 7 days post-treatment at a dose of 30 mg/Kg when given orally; Control 50.5; type: functional
# Sequence of 4-aminobutyrate aminotransferase, mitochondrial (Rattus norvegicus) (P50554 28-500 limits assumed): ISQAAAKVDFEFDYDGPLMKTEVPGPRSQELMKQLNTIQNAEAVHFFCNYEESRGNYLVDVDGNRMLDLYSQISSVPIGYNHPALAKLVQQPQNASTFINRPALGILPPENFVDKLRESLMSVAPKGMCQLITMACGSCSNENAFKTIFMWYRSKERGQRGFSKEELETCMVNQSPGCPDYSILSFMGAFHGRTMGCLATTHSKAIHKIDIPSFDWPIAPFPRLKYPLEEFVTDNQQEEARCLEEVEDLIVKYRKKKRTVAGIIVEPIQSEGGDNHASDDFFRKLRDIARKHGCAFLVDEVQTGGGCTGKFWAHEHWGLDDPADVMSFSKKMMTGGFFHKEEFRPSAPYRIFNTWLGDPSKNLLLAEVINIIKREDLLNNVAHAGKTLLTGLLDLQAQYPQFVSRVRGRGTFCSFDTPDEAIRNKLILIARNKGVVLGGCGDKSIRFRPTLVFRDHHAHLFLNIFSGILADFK
SMILES,Activity (Rattus norvegicus [1]),Activity (Rattus norvegicus [2]),NT (Mus musculus [3]) [mg/kg],MES (Mus musculus [4]) [mg/kg],Activity (Rattus norvegicus [5]),PTZ seizure (Mus musculus [6]) [mg/kg],Activity (Rattus norvegicus [7]),MES (Mus musculus [8]) [mg/kg],Activity (Rattus norvegicus [9]),STY seizure (Mus musculus [11]) [mg/kg],STY seizure (Mus musculus [12]) [mg/kg],further results
Cc1cccc(C)c1NC(=O)NN=C1CCCC1,1,3,300,100,2,300,1,300,2,,,
Cc1cccc(C)c1NC(=O)/N=N/c1c(O)[nH]c2ccc(F)cc12,1,1,300,100,1,300,3,300,1,30,100,Activity (Mus musculus [10]): 194; Activity (Mus musculus [13]): 204
C/C(=N\NC(=O)Nc1c(C)cccc1C)c1ccccc1O,2,3,,100,3,300,4,300,1,100,300,
Cc1cccc(C)c1NC(=O)N/N=C/c1ccc([N+](=O)[O-])cc1,2,1,300,100,1,300,1,300,1,30,100,
C/C(=N\NC(=O)Nc1c(C)cccc1C)c1cccc(N)c1,1,2,300,100,1,,3,300,3,100,300,
Cc1cccc(C)c1NC(=O)NN=C1CCCCC1,2,4,300,100,1,,3,300,1,100,300,
Cc1cccc(C)c1NC(=O)N/N=C/c1ccccc1,3,3,300,100,1,300,4,100,3,30,100,
CCCC(CCC)C(=O)O [VALPROIC ACID],,,,,,,,,,,,NT (Mus musculus [14]): 300 mg/kg
Cc1cccc(C)c1NC(=O)NN=C(Cc1ccccc1)Cc1ccccc1,1,0,300,300,0,,0,300,1,300,,
COc1ccc(/C=N/NC(=O)Nc2c(C)cccc2C)cc1,3,3,300,100,1,300,3,300,4,30,100,
C/C(=N\NC(=O)Nc1c(C)cccc1C)c1ccc([N+](=O)[O-])cc1,2,3,300,300,1,300,1,300,2,100,300,
NNCCc1ccccc1 [PHENELZINE],,,,,,,,,,,,Inhibition (Rattus norvegicus [15]): 85%; inhibition [16]: 75%; Inhibition (Rattus norvegicus [17]): 25%; inhibition [18]: 0%; Inhibition (Rattus norvegicus [19]): 65%; inhibition [20]: 62%
Cc1cccc(C)c1NC(=O)N/N=C\c1ccco1,1,4,300,100,0,300,3,300,2,100,300,
Cc1cccc(C)c1NC(=O)N/N=C/c1ccccc1Cl,1,1,300,100,2,300,4,300,1,30,100,
CC(C)=NNC(=O)Nc1c(C)cccc1C,4,3,300,100,3,300,2,300,4,100,100,
C/C(CC(C)C)=N/NC(=O)Nc1c(C)cccc1C,2,4,,100,1,,2,300,2,30,100,
Cc1cccc(C)c1NC(=O)NN=C(c1ccccc1)c1ccccc1,1,1,300,100,1,300,0,300,1,300,,
CCC1(c2ccccc2)C(=O)NC(=O)NC1=O [PHENOBARBITAL],,,,,,,,,,,,Time (Mus musculus [21]): 54 min; NT (Mus musculus [14]): 100 mg/kg
C/C(=N\NC(=O)Nc1c(C)cccc1C)c1ccccc1,4,3,,100,1,300,3,300,2,30,100,
CN1C(=O)CC(=O)N(c2ccccc2)c2cc(Cl)ccc21 [CLOBAZAM],,,,,,,,,,,,Activity (Rattus norvegicus [22]): 101 ug/100mg of tissue; Activity (Rattus norvegicus [23]): 110 ug/100mg of tissue
